The record followed here is patent US6399659B2, “Hydrazine oxoacetamide derivative and insecticide” (Agro-Kanesho Co., Ltd., priority 1998, dated 2002).

Assay type in all cases: in vivo
In data set [1] the test system is Spodoptera litura. Nature of the data set: Effect on Spodoptera litura, sprayed Chinese cabbage leaves, death rate. The note with it: third-instar larvae, 48 hours. The method, then: An emulsion was prepared from each of the present compounds listed below, in the same manner as that of Preparation Example 2. The obtained emulsion was diluted with water so that the concentration of the present compound would be 50 ppm, 5 ppm or 0.5 ppm to obtain diluted aqueous emulsions.
The diluted aqueous emulsions were sprayed on leaves of Chinese cabbages of a 3-4 leave stage. After drying with air, the leaves were placed in a plastic vessel having a size of 21 cm×13 cm×3 cm (depth). Ten third-instar larvae of Spodoptera litura were released in the vessel. The vessel was closed and placed in a room kept at a constant temperature of 26. 48 hours after, the numbers of surviving and dead ones were counted, and the death rate was calculated.

Data set [2] has as its system Plutella xylostella. The data set is described as follows: Effect on Plutella xylostella, sprayed Chinese cabbage leaves, death rate. The note with it: third-instar larvae, 48 hours. As to the method:
Emulsions of varied concentrations prepared in the same manner as that of the above Biological Test Example 1 were sprayed on leaves of Chinese cabbages of a 3-4 leave stage. After drying with air, the leaves were placed in a plastic vessel having a size of 9 cm (inside diameter)×6.5 cm (depth). Ten third-instar larvae of Plutella xylostella were released in the vessel. The vessel was closed and placed in a room kept at a constant temperature of 26. 48 hours after, the numbers of surviving and dead ones were counted, and the death rate was calculated. The results are shown in following Table 7 together with those obtained with comparative compounds.

The subject of data set [3] is Mamestra brassicae. The data set is described as follows: Effect on Mamestra brassicae, insecticidal activity as in Biological Test Example 1.
Data set [4] is described as follows: Peroral acute toxicity for mouse. The note with it: 300 mg/kg peroral, male ICR mice, 7 days observation. As to the method:
Each of the present compounds was suspended in a 0.5% aqueous carboxymethylcellulose solution to obtain a suspension of a predetermined concentration. Male SIc:ICR mice (SPF) of 6 weeks old (body weight: 29.5 to 34.4 g) were fasted for 3 hours. 1 ml, per 100 g of the body weight, of the suspension was forcibly fed into the stomach of each mouse. Then, a food and water were given to the mice and they were bred in a cage. The observation period after the administration was 7 days. During that period, the life and death, general conditions and change in body weight of the mice were observed. Thereafter, pathologico-anatomic experiments were carried out (two mice in each group).

“4-[(4-chlorophenyl)-(ethylaminoxalyl-hydrazono)-methyl]phenyl trifuoromethanesulfonate [Compound 1-5]”: the death rate stood at 100% in data set [1] (0.5 ppm); 100% in data set [1] (5 ppm); 100% in data set [1] (50 ppm); 0 in data set [2] (0.5 ppm); 100 in data set [2] (5 ppm); 100 in data set [2] (50 ppm). The insecticidal activity (death rate) in data set [3] (1.25 ppm) is 89%; in data set [3] (2.5 ppm) it was 100%; in data set [3] (50 ppm), 100%. Besides, the “life and death, general conditions” value in data set [4] was “Neither death nor abnormality of the general conditions was recognized”.

As for `COC(=O)C(=O)N/N=C(/c1ccc(Cl)cc1)c1ccc(OS(C)(=O)=O)cc1` [Comparative compound C, reference compound], the death rate in data set [1] (5 ppm) was found to be 0%; in data set [1] (50 ppm), 100%.

Consider `CNC(=O)C(=O)NN=C(c1ccc(Cl)cc1)c1ccc(OS(=O)(=O)C(F)(F)F)cc1` [Compound 1-3, 4-[(4-chlorophenyl)-(methylaminoxalyl-hydrazono)-methyl]-phenyl trifluoromethanesulfonate], for which the death rate in data set [1] (0.5 ppm) turned out to be 50%; in data set [1] (5 ppm) it was 100%; in data set [1] (50 ppm) it was 100%; in data set [2] (0.5 ppm), 0; in data set [2] (5 ppm), 100; in data set [2] (50 ppm), 100. The insecticidal activity (death rate) was found to be 67% in data set [3] (1.25 ppm), 89% in data set [3] (2.5 ppm) and 100% in data set [3] (50 ppm).

As to `CCCNC(=O)C(=O)NN=C(c1ccc(Cl)cc1)c1ccc(OS(=O)(=O)C(F)(F)F)cc1` [Compound 1-7], the death rate in data set [1] (0.5 ppm) came out at 70%; in data set [1] (5 ppm), 100%; in data set [1] (50 ppm), 100%. Also, the insecticidal activity (death rate) came out at 50% in data set [3] (1.25 ppm), 70% in data set [3] (2.5 ppm) and 100% in data set [3] (50 ppm).

As for `C=CCNC(=O)C(=O)NN=C(c1ccc(Cl)cc1)c1ccc(OS(=O)(=O)C(F)(F)F)cc1` [Compound 1-27], the values for the death rate in data set [1] (0.5 ppm), in data set [1] (5 ppm) and in data set [1] (50 ppm) were 70%, 100% and 100%, respectively. For the same compound, the insecticidal activity (death rate) came to 80% in data set [3] (1.25 ppm), 100% in data set [3] (2.5 ppm) and 100% in data set [3] (50 ppm).

For the compound `C#CCNC(=O)C(=O)NN=C(c1ccc(Cl)cc1)c1ccc(OS(=O)(=O)C(F)(F)F)cc1` [Compound 1-37], the death rate in data set [1] (0.5 ppm) was determined as 60%; in data set [1] (5 ppm), 100%; in data set [1] (50 ppm), 100%. Moreover, the insecticidal activity (death rate) in data set [3] (1.25 ppm) amounted to 70%; in data set [3] (2.5 ppm), 100%; in data set [3] (50 ppm) it was 100%.

In the case of `O=C(NN=C(c1ccc(Cl)cc1)c1ccc(OS(=O)(=O)C(F)(F)F)cc1)C(=O)NC1CC1` [Compound 1-43], the death rate in data set [1] (0.5 ppm) was 90%; in data set [1] (5 ppm), 100%; in data set [1] (50 ppm), 100%. Also, the results for the insecticidal activity (death rate) in data set [3] (1.25 ppm), in data set [3] (2.5 ppm) and in data set [3] (50 ppm) were 33%, 67% and 100%, respectively.

`CN(C)C(=O)C(=O)N/N=C(/c1ccc(Cl)cc1)c1ccc(OS(=O)(=O)C(F)(F)F)cc1` [Compound 1-133]: the death rate in data set [1] (0.5 ppm) came out at 90%; in data set [1] (5 ppm), 100%; in data set [1] (50 ppm), 100%. Besides, the insecticidal activity (death rate) is 44% in data set [3] (1.25 ppm), 100% in data set [3] (2.5 ppm) and 100% in data set [3] (50 ppm).

On to `CNC(=O)C(=O)N(C)N=C(c1ccc(Cl)cc1)c1ccc(OS(=O)(=O)C(F)(F)F)cc1` [Compound 1-178], for which the death rate in data set [1] (0.5 ppm) came out at 30%; in data set [1] (5 ppm), 100%; in data set [1] (50 ppm), 100%.

As for `CNC(=O)C(=O)NN=C(c1ccc(Br)cc1)c1ccc(OS(=O)(=O)C(F)(F)F)cc1` [Compound 1-515], the values for the death rate in data set [1] (0.5 ppm), in data set [1] (5 ppm) and in data set [1] (50 ppm) were 75%, 100% and 100%, respectively. Further, the insecticidal activity (death rate) in data set [3] (1.25 ppm) is 60%; in data set [3] (2.5 ppm), 80%; in data set [3] (50 ppm), 100%.

`CCNC(=O)C(=O)NN=C(c1ccc(Br)cc1)c1ccc(OS(=O)(=O)C(F)(F)F)cc1` [Compound 1-517]: the death rate in data set [1] (0.5 ppm) stood at 60%; in data set [1] (5 ppm), 100%; in data set [1] (50 ppm) it was 100%. Besides, the insecticidal activity (death rate) in data set [3] (1.25 ppm), in data set [3] (2.5 ppm) and in data set [3] (50 ppm) was 100% throughout.

As for `O=C(NN=C(c1ccc(Br)cc1)c1ccc(OS(=O)(=O)C(F)(F)F)cc1)C(=O)NC1CC1` [Compound 1-555], the death rate came to 40% in data set [1] (0.5 ppm), 100% in data set [1] (5 ppm) and 100% in data set [1] (50 ppm).

Turning to `CCNC(=O)C(=O)NN=C(c1ccc(Cl)cc1)c1ccc(CSC(F)(F)F)cc1` [Compound 2-6], the death rate in data set [1] (0.5 ppm) turned out to be 50%; in data set [1] (5 ppm) it was 100%; in data set [1] (50 ppm) it was 100%.
